Measurements published in PubChem BioAssay AID248 (DTP/NCI, 2004).
“And” between values parts separate entries of the source, which are not always exact repeats. Equal entries are not always repeated. Toxic doses and inconclusive results are not listed. Rule as the data show it: active = T/C of 150% or more; inactive = T/C below 125%.

Tested on: L1210 leukemia ip in BDF1 mice, survival T/C
Experiment: NCI In Vivo Anticancer Drug Screen. Data for tumor model L1210 Leukemia (intraperitoneal) in B6D2F1 (BDF1) mice
Conditions: endpoint: mean survival time, higher = longer survival
Outline: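 In this screen, tumor-bearing mice given compound are compared to those given vehicle, and their survival values are reported as a treated-to-control quotient.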

[1] = dose: 50.0 mg/kg/injection, schedule: Q01DX001 (ip), vehicle: carboxymethylcellulose (CMC)
[2] = dose: 100.0 mg/kg/injection, schedule: Q01DX001 (ip), vehicle: carboxymethylcellulose (CMC)
[3] = dose: 200.0 mg/kg/injection, schedule: Q01DX001 (ip), vehicle: carboxymethylcellulose (CMC)
[4] = dose: 400.0 mg/kg/injection, schedule: Q01DX001 (ip), vehicle: carboxymethylcellulose (CMC)
[5] = dose: 100.0 mg/kg/injection, schedule: Q04DX003 (ip), vehicle: saline
[6] = dose: 200.0 mg/kg/injection, schedule: Q04DX003 (ip), vehicle: saline
[7] = dose: 100.0 mg/kg/injection, schedule: Q04DX003 (ip), vehicle: saline with Tween-80
[8] = dose: 25.0 mg/kg/injection, schedule: Q01DX009 (ip), vehicle: saline
[9] = dose: 25.0 mg/kg/injection, schedule: Q04DX003 (ip), vehicle: saline
[10] = dose: 50.0 mg/kg/injection, schedule: Q01DX009 (ip), vehicle: saline
[11] = dose: 50.0 mg/kg/injection, schedule: Q04DX003 (ip), vehicle: saline
[12] = dose: 100.0 mg/kg/injection, schedule: Q01DX009 (ip), vehicle: saline
[13] = dose: 10.0 mg/kg/injection, schedule: Q01DX001 (ip), vehicle: saline
[14] = dose: 100.0 mg/kg/injection, schedule: Q01DX001 (ip), vehicle: saline
[15] = dose: 200.0 mg/kg/injection, schedule: Q01DX001 (ip), vehicle: saline
[16] = dose: 400.0 mg/kg/injection, schedule: Q01DX001 (ip), vehicle: saline
[17] = dose: 100.0 mg/kg/injection, schedule: Q01DX009 (ip), vehicle: Klucel (hydroxypropylcellulose) (HPC)
[18] = dose: 200.0 mg/kg/injection, schedule: Q01DX009 (ip), vehicle: Klucel (hydroxypropylcellulose) (HPC)
[19] = dose: 400.0 mg/kg/injection, schedule: Q01DX009 (ip), vehicle: Klucel (hydroxypropylcellulose) (HPC)
[20] = dose: 50.0 mg/kg/injection, schedule: Q01DX009 (ip), vehicle: saline with Tween-80
[21] = dose: 100.0 mg/kg/injection, schedule: Q01DX009 (ip), vehicle: saline with Tween-80
[22] = dose: 200.0 mg/kg/injection, schedule: Q01DX009 (ip), vehicle: saline with Tween-80
[23] = dose: 400.0 mg/kg/injection, schedule: Q04DX003 (ip), vehicle: saline

Measured: T/C

CCOC(=O)NC(NC(=O)OCC)c1ccc2c(c1)OCO2
inactive: [1] 105 % of control | [2] 96 % of control | [3] 91 % of control | [4] 94 % of control

CCC(N)CC
inactive: dose: 75.0 mg/kg/injection, schedule: Q01DX009 (ip), vehicle: saline 104 % of control | [5] 105 % of control | dose: 150.0 mg/kg/injection, schedule: Q01DX009 (ip), vehicle: saline 96 % of control and 100 % of control | [6] 103 % of control

NC(CNC(=O)OCc1ccccc1)=NCC(=O)O
inactive: dose: 25.0 mg/kg/injection, schedule: Q04DX003 (ip), vehicle: saline with Tween-80 94 % of control | dose: 50.0 mg/kg/injection, schedule: Q04DX003 (ip), vehicle: saline with Tween-80 89 % of control | [7] 89 % of control and 92 % of control

CN(C)C(=O)/N=N/C(=O)N(C)C
inactive: [8] 97 % of control | [9] 96 % of control | [10] 106 % of control | [11] 102 % of control | [12] 101 % of control | [5] 102 % of control

CC(=O)Nc1ncccc1C
inactive: dose: 5.0 mg/kg/injection, schedule: Q01DX001 (ip), vehicle: saline 94 % of control | [13] 96 % of control | dose: 20.0 mg/kg/injection, schedule: Q01DX001 (ip), vehicle: saline 101 % of control | dose: 40.0 mg/kg/injection, schedule: Q01DX001 (ip), vehicle: saline 100 % of control

N#Cc1ccc(S(N)(=O)=O)cc1
inactive: [14] 100 % of control | dose: 100.0 mg/kg/injection, schedule: Q01DX009 (ip), vehicle: acetone 98 % of control | dose: 100.0 mg/kg/injection, schedule: Q04DX003 (ip), vehicle: acetone 96 % of control | [15] 94 % of control | dose: 200.0 mg/kg/injection, schedule: Q04DX003 (ip), vehicle: acetone 94 % of control | [16] 120 % of control | dose: 400.0 mg/kg/injection, schedule: Q04DX003 (ip), vehicle: acetone 100 % of control

CCOCc1nc(NC(C)=O)nc(NC(C)=O)c1-c1ccc(Cl)cc1
inactive: dose: 75.0 mg/kg/injection, schedule: Q01DX001 (ip), vehicle: saline with Tween-80 100 % of control | dose: 150.0 mg/kg/injection, schedule: Q01DX001 (ip), vehicle: saline with Tween-80 96 % of control

Cc1c2c(cc3c1OCN(Cc1ccccc1)C3)CN(Cc1ccccc1)CO2
inactive: [1] 105 % of control | [2] 94 % of control | [3] 89 % of control | [4] 91 % of control

CC(C)OC(CCCl)c1ccccc1 (stereo not given)
inactive: [17] 91 % of control | dose: 100.0 mg/kg/injection, schedule: Q04DX003 (ip), vehicle: Klucel (hydroxypropylcellulose) (HPC) 96 % of control | [18] 96 % of control | dose: 200.0 mg/kg/injection, schedule: Q04DX003 (ip), vehicle: Klucel (hydroxypropylcellulose) (HPC) 102 % of control | [19] 95 % of control | dose: 400.0 mg/kg/injection, schedule: Q04DX003 (ip), vehicle: Klucel (hydroxypropylcellulose) (HPC) 96 % of control

C=C(C)C(=O)CC(=O)C1CCc2cc(OC)ccc2C1=O (stereo not given)
inactive: dose: 100.0 mg/kg/injection, schedule: Q01DX009 (ip), vehicle: saline sonified 102 % of control | dose: 200.0 mg/kg/injection, schedule: Q01DX009 (ip), vehicle: saline sonified 96 % of control | dose: 400.0 mg/kg/injection, schedule: Q01DX009 (ip), vehicle: saline sonified 100 % of control

CN1CCC=C(C(=O)N2c3ccccc3Sc3ccccc32)C1
inactive: [8] 88 % of control | [9] 97 % of control | [10] 96 % of control | [11] 96 % of control | [12] 102 % of control | [5] 96 % of control and 105 % of control

O=C1NC23CC=CCC12CCCCCC3 (stereo not given)
inactive: dose: 100.0 mg/kg/injection, schedule: Q04DX002 (ip), vehicle: other 93 % of control | dose: 200.0 mg/kg/injection, schedule: Q04DX002 (ip), vehicle: other 90 % of control | dose: 400.0 mg/kg/injection, schedule: Q04DX002 (ip), vehicle: other 86 % of control

COc1cc(N=O)ccc1O
inactive: dose: 50.0 mg/kg/injection, schedule: Q01DX009 (ip), vehicle: Klucel (hydroxypropylcellulose) (HPC) 106 % of control | [17] 103 % of control | [18] 100 % of control

CCOc1ccc(NC(C)=O)c(O)c1
inactive: dose: 75.0 mg/kg/injection, schedule: Q01DX001 (ip), vehicle: saline 101 % of control | dose: 150.0 mg/kg/injection, schedule: Q01DX001 (ip), vehicle: saline 98 % of control

CC(C)C1(O)C2C3CCC(C3)C2C(=O)C2C3CCC(C3)C21 (stereo not given)
inactive: [20] 96 % of control | [21] 93 % of control | [22] 93 % of control

OCCN1CCC2(CC1)SSC1(CCN(CCO)CC1)S2
inactive: [20] 104 % of control | [21] 98 % of control | [7] 100 % of control | [22] 93 % of control | dose: 200.0 mg/kg/injection, schedule: Q04DX003 (ip), vehicle: saline with Tween-80 104 % of control

CC(C)NC(=O)Oc1cccc(NC(=O)N(C)C)c1
inactive: [21] 93 % of control | [22] 93 % of control | dose: 400.0 mg/kg/injection, schedule: Q01DX009 (ip), vehicle: saline with Tween-80 93 % of control

CNP(Br)(c1ccccc1)(c1ccccc1)c1ccccc1
inactive: [13] 101 % of control

CC(C)(C)C(=O)CN
inactive: [14] 116 % of control | [12] 101 % of control and 104 % of control | [5] 101 % of control | [15] 119 % of control | dose: 200.0 mg/kg/injection, schedule: Q01DX009 (ip), vehicle: saline 93 % of control and 97 % of control | [6] 109 % of control | [16] 122 % of control | dose: 400.0 mg/kg/injection, schedule: Q01DX009 (ip), vehicle: saline 101 % of control | [23] 93 % of control

Cc1ccc(-c2ccccc2)n1-c1ccccc1O
inactive: dose: 50.0 mg/kg/injection, schedule: Q01DX001 (ip), vehicle: other 104 % of control | dose: 100.0 mg/kg/injection, schedule: Q01DX001 (ip), vehicle: other 102 % of control | dose: 200.0 mg/kg/injection, schedule: Q01DX001 (ip), vehicle: other 96 % of control | dose: 400.0 mg/kg/injection, schedule: Q01DX001 (ip), vehicle: other 98 % of control

[Cl][Pt+2]([Cl])([Cl])[Cl].c1ccc(C2CC[N-]CC2)cc1.c1ccc(C2CC[N-]CC2)cc1
inactive: dose: 50.0 mg/kg/injection, schedule: Q01DX009 (ip), vehicle: water 101 % of control | dose: 100.0 mg/kg/injection, schedule: Q01DX009 (ip), vehicle: water 102 % of control | dose: 100.0 mg/kg/injection, schedule: Q04DX003 (ip), vehicle: water 105 % of control | dose: 200.0 mg/kg/injection, schedule: Q04DX003 (ip), vehicle: water 103 % of control

O=[N+]([O-])c1cc(N(c2ccccc2)c2ccccc2)ccc1Cl
inactive: [2] 97 % of control | [3] 97 % of control | [4] 95 % of control

O=c1[nH]c2cscc2c(=O)n1OS(=O)(=O)c1ccccc1
inactive: [17] 93 % of control | [18] 95 % of control | [19] 100 % of control

O=C1NC(=O)C([N+](=O)[O-])=C(O)C1=O
inactive: [5] 96 % of control | [6] 101 % of control

O=C1CCC2(C/C1=N\Nc1ccccc1)OCCO2
inactive: [5] 100 % of control | [6] 96 % of control | [23] 100 % of control

Cc1c(O)ccc([N+](=O)[O-])c1O
inactive: dose: 6.25 mg/kg/injection, schedule: Q01DX009 (ip), vehicle: saline with Tween-80 93 % of control | dose: 12.5 mg/kg/injection, schedule: Q01DX009 (ip), vehicle: saline with Tween-80 97 % of control | dose: 25.0 mg/kg/injection, schedule: Q01DX009 (ip), vehicle: saline with Tween-80 97 % of control
